Test results published in publication PMC5218480 (PLoS ONE, 2017).

Test system: MV-4-11 cells
Test: Gene expression microarray analysis (Affymetrix PrimeView) and GSEA
Assay type: cell-based, human
Set-up: RFU PODN (11730768_x_at) / Fold change /veh PODN (11730768_x_at) / RFU LINC00158 (11744669_a_at) / Fold change /veh LINC00158 (11744669_a_at) / RFU DUSP10 (11751237_a_at) / Fold change /veh DUSP10 (11751237_a_at) / RFU ID3 (11757404_x_at) / Fold change /veh ID3 (11757404_x_at) / RFU PLEKHG5 (11737974_s_at) / Fold change /veh PLEKHG5 (11737974_s_at) / RFU LRRC4B (11730491_at) / Fold change /veh LRRC4B (11730491_at) / RFU GIMAP4 (11747438_a_at) / Fold change /veh GIMAP4 (11747438_a_at) / RFU KRT8 (11758183_x_at) / Fold change /veh KRT8 (11758183_x_at) / RFU CNN1 (11734310_a_at) / Fold change /veh CNN1 (11734310_a_at) / RFU VPS37D (11726825_at) / Fold change /veh VPS37D (11726825_at) / RFU C10orf10 (11716522_x_at) / Fold change /veh C10orf10 (11716522_x_at) / RFU KIR2DL2 /// KIR2DL4 /// KIR2DL5A /// KIR2DL5B /// KIR2DS1 /// KIR2DS2 /// KIR2DS3 /// KIR2DS4 /// KIR3DL3 /// KIR3DL3 /// KIR3DS1 (11738374_at) / Fold change /veh KIR2DL2 /// KIR2DL4 /// KIR2DL5A /// KIR2DL5B /// KIR2DS1 /// KIR2DS2 /// KIR2DS3 /// KIR2DS4 /// KIR3DL3 /// KIR3DL3 /// KIR3DS1 (11738374_at) / RFU C1QL1 (11718748_at) / Fold change /veh C1QL1 (11718748_at) / RFU TMPRSS4 (11747572_a_at) / Fold change /veh TMPRSS4 (11747572_a_at) / RFU HAMP (11756126_x_at) / Fold change /veh HAMP (11756126_x_at) / RFU RNFT2 (11725882_a_at) / Fold change /veh RNFT2 (11725882_a_at) / RFU NR4A2 (11747474_a_at) / Fold change /veh NR4A2 (11747474_a_at) / RFU ABCC12 (11746883_a_at) / Fold change /veh ABCC12 (11746883_a_at) / RFU TMEM136 (11760407_x_at) / Fold change /veh TMEM136 (11760407_x_at) / RFU CLDN22 /// WWC2 (11732394_at) / Fold change /veh CLDN22 /// WWC2 (11732394_at) / RFU HLA-DPB1 (11760878_x_at) / Fold change /veh HLA-DPB1 (11760878_x_at) / RFU SPINT1 (11716480_a_at) / Fold change /veh SPINT1 (11716480_a_at) / RFU GAP43 (11754022_s_at) / Fold change /veh GAP43 (11754022_s_at) / RFU A4GNT (11735810_at) / Fold change /veh A4GNT (11735810_at) / RFU PRB3 (11715151_x_at) / Fold change /veh PRB3 (11715151_x_at) / RFU TUBB4B (11761932_at) / Fold change /veh TUBB4B (11761932_at) / RFU CAPN14 (11732068_a_at) / Fold change /veh CAPN14 (11732068_a_at) / RFU TMCC2 (11721928_a_at) / Fold change /veh TMCC2 (11721928_a_at) / RFU IRGQ (11745062_a_at) / Fold change /veh IRGQ (11745062_a_at) / RFU FAM174B (11720279_a_at) / Fold change /veh FAM174B (11720279_a_at) / RFU TMPRSS4 (11748680_a_at) / Fold change /veh TMPRSS4 (11748680_a_at) / RFU FAM212B (11763350_a_at) / Fold change /veh FAM212B (11763350_a_at) / RFU PLEKHG5 (11743358_a_at) / Fold change /veh PLEKHG5 (11743358_a_at) / RFU ZSCAN30 (11745921_a_at) / Fold change /veh ZSCAN30 (11745921_a_at) / RFU CMKLR1 (11741424_a_at) / Fold change /veh CMKLR1 (11741424_a_at) / RFU LOC101060620 /// MAPK8IP1 (11723275_at) / Fold change /veh LOC101060620 /// MAPK8IP1 (11723275_at) / RFU SPTSSB (11747773_x_at) / Fold change /veh SPTSSB (11747773_x_at) / RFU PRSS12 (11739890_at) / Fold change /veh PRSS12 (11739890_at) / RFU BIN1 (11741810_x_at) / Fold change /veh BIN1 (11741810_x_at) / RFU WNT11 (11732464_a_at) / Fold change /veh WNT11 (11732464_a_at) / RFU C10orf10 (11716521_a_at) / Fold change /veh C10orf10 (11716521_a_at) / RFU C5orf56 (11738089_at) / Fold change /veh C5orf56 (11738089_at) / RFU CYB561 (11721691_x_at) / Fold change /veh CYB561 (11721691_x_at) / RFU ANKRD19P (11752326_a_at) / Fold change /veh ANKRD19P (11752326_a_at) / RFU OR2T12 /// OR2T33 /// OR2T8 (11738714_s_at) / Fold change /veh OR2T12 /// OR2T33 /// OR2T8 (11738714_s_at) / RFU VCAN (11748164_a_at) / Fold change /veh VCAN (11748164_a_at) / RFU JSRP1 (11732532_at) / Fold change /veh JSRP1 (11732532_at) / RFU KRTAP10-11 (11738290_x_at) / Fold change /veh KRTAP10-11 (11738290_x_at) / RFU MYO3A (11730013_a_at) / Fold change /veh MYO3A (11730013_a_at) / RFU EBF3 (11725865_a_at) / Fold change /veh EBF3 (11725865_a_at) / RFU CAMK2N1 (11719241_x_at) / Fold change /veh CAMK2N1 (11719241_x_at) / RFU C5orf56 (11738088_a_at) / Fold change /veh C5orf56 (11738088_a_at) / RFU OLFML3 (11715873_a_at) / Fold change /veh OLFML3 (11715873_a_at) / RFU LOC100653217 /// NTM (11731650_a_at) / Fold change /veh LOC100653217 /// NTM (11731650_a_at) / RFU MAPK11 (11762145_a_at) / Fold change /veh MAPK11 (11762145_a_at) / RFU FIZ1 (11724087_x_at) / Fold change /veh FIZ1 (11724087_x_at) / RFU OASL (11726364_x_at) / Fold change /veh OASL (11726364_x_at) / RFU SOX15 (11748057_x_at) / Fold change /veh SOX15 (11748057_x_at) / RFU CD79A (11719716_a_at) / Fold change /veh CD79A (11719716_a_at) / RFU HIST1H1D (11736915_at) / Fold change /veh HIST1H1D (11736915_at) / RFU CASKIN2 (11723855_a_at) / Fold change /veh CASKIN2 (11723855_a_at) / RFU LOC730098 (11760151_x_at) / Fold change /veh LOC730098 (11760151_x_at) / RFU OR4N2 (11742367_at) / Fold change /veh OR4N2 (11742367_at) / RFU PRRT2 (11749266_a_at) / Fold change /veh PRRT2 (11749266_a_at) / RFU SNX32 (11753110_a_at) / Fold change /veh SNX32 (11753110_a_at) / RFU CDHR5 (11726645_a_at) / Fold change /veh CDHR5 (11726645_a_at) / RFU RCAN1 (11760418_a_at) / Fold change /veh RCAN1 (11760418_a_at) / RFU FAM167A (11723789_a_at) / Fold change /veh FAM167A (11723789_a_at) / RFU FAM26E (11764081_at) / Fold change /veh FAM26E (11764081_at) / RFU ISYNA1 (11749810_s_at) / Fold change /veh ISYNA1 (11749810_s_at) / RFU ACY1 (11761880_at) / Fold change /veh ACY1 (11761880_at) / RFU 11764098_at / Fold change /veh 11764098_at / RFU SAMD14 (11745864_x_at) / Fold change /veh SAMD14 (11745864_x_at) / RFU NPB (11741838_a_at) / Fold change /veh NPB (11741838_a_at) / RFU TMPRSS6 (11731388_a_at) / Fold change /veh TMPRSS6 (11731388_a_at) / RFU KRTAP10-2 (11738614_at) / Fold change /veh KRTAP10-2 (11738614_at) / RFU ARHGAP8 /// PRR5-ARHGAP8 (11727945_x_at) / Fold change /veh ARHGAP8 /// PRR5-ARHGAP8 (11727945_x_at) / RFU KRTAP5-7 /// NADSYN1 (11734609_at) / Fold change /veh KRTAP5-7 /// NADSYN1 (11734609_at) / RFU RASL12 (11751679_a_at) / Fold change /veh RASL12 (11751679_a_at) / RFU CDKN2B (11736163_a_at) / Fold change /veh CDKN2B (11736163_a_at) / RFU PRF1 (11729649_at) / Fold change /veh PRF1 (11729649_at) / RFU, ZNF638 /// ZNF638-IT1 / Fold change vs veh, ZNF638 /// ZNF638-IT1 / RFU, PANK3 / Fold change vs veh, PANK3 / RFU, SH3YL1 / Fold change vs veh, SH3YL1 / RFU, ZEB2 / Fold change vs veh, ZEB2 / RFU, NRIP1 / Fold change vs veh, NRIP1 / RFU, PTTG1IP / Fold change vs veh, PTTG1IP / RFU, CAPN2 / Fold change vs veh, CAPN2 / RFU, MED14 / Fold change vs veh, MED14 / RFU, SNORA58 / Fold change vs veh, SNORA58 / RFU, C1orf63 / Fold change vs veh, C1orf63 / RFU, LRRFIP1 / Fold change vs veh, LRRFIP1 / RFU, NDUFAF7 / Fold change vs veh, NDUFAF7 / RFU, SLC12A2 / Fold change vs veh, SLC12A2 / RFU, IBTK / Fold change vs veh, IBTK / RFU, ESF1 / Fold change vs veh, ESF1 / Fold change vs veh, TMEM50B / RFU, TAOK1 / Fold change vs veh, TAOK1 / RFU, ACBD3 / Fold change vs veh, ACBD3 / RFU, TMA16 / Fold change vs veh, TMA16 / RFU, RWDD3 / Fold change vs veh, RWDD3 / RFU, BCAT1 / Fold change vs veh, BCAT1 / RFU, EDEM3 / Fold change vs veh, EDEM3 / RFU, TMEM33 / Fold change vs veh, TMEM33 / RFU, WDR75 / Fold change vs veh, WDR75 / RFU, AHCTF1 / Fold change vs veh, AHCTF1 / RFU, TFRC / Fold change vs veh, TFRC / RFU, ZDHHC17 / Fold change vs veh, ZDHHC17 / RFU, NOM1 / Fold change vs veh, NOM1 / RFU, ARL8B / Fold change vs veh, ARL8B / RFU, ZBTB11 / Fold change vs veh, ZBTB11 / RFU, TAMM41 / Fold change vs veh, TAMM41 / RFU, KIAA1704 /// LOC100996395 / Fold change vs veh, KIAA1704 /// LOC100996395 / RFU, ING1 / Fold change vs veh, ING1 / RFU, TRMT61B / Fold change vs veh, TRMT61B / RFU, FUBP3 / Fold change vs veh, FUBP3 / RFU, TP53 / Fold change vs veh, TP53 / RFU, TNKS2 / Fold change vs veh, TNKS2 / RFU, ZFP14 / Fold change vs veh, ZFP14 / RFU, ACTR2 / Fold change vs veh, ACTR2 / RFU, PPP3R1 / Fold change vs veh, PPP3R1 / RFU, PIK3R1 / Fold change vs veh, PIK3R1 / RFU, HNRNPA1 / Fold change vs veh, HNRNPA1 / RFU, RNF170 / Fold change vs veh, RNF170 / RFU, ZNF28 / Fold change vs veh, ZNF28 / RFU, RNGTT / Fold change vs veh, RNGTT / RFU, OGT / Fold change vs veh, OGT / RFU, BRD1 / Fold change vs veh, BRD1 / RFU, MARS / Fold change vs veh, MARS / RFU, ZNF655 / Fold change vs veh, ZNF655 / RFU, FAHD1 / Fold change vs veh, FAHD1 / RFU, BDP1 / Fold change vs veh, BDP1 / RFU, LRRCC1 / Fold change vs veh, LRRCC1 / RFU, ARID1A / Fold change vs veh, ARID1A / RFU, ZNF146 / Fold change vs veh, ZNF146 / RFU, ZNF330 / Fold change vs veh, ZNF330 / RFU, GPN3 / Fold change vs veh, GPN3 / RFU, C9orf123 / Fold change vs veh, C9orf123 / RFU, N4BP2L2 / Fold change vs veh, N4BP2L2 / RFU, ARFIP1 / Fold change vs veh, ARFIP1 / RFU, FAM179B / Fold change vs veh, FAM179B / RFU, BCL10 / Fold change vs veh, BCL10 / RFU, UHRF1BP1L / Fold change vs veh, UHRF1BP1L / RFU, BET1 / Fold change vs veh, BET1 / RFU, CNOT2 / Fold change vs veh, CNOT2 / RFU, ZNF268 / Fold change vs veh, ZNF268 / Fold change vs veh, ZNF507 / RFU, DGCR2 / Fold change vs veh, DGCR2 / RFU, WDSUB1 / Fold change vs veh, WDSUB1 / Fold change vs veh, HSP90B1 /// MIR3652 / RFU, ADSS / Fold change vs veh, ADSS / RFU, GK / Fold change vs veh, GK / RFU, ZNF148 / Fold change vs veh, ZNF148 / RFU, TAF9 / Fold change vs veh, TAF9 / RFU, SLC1A5 / Fold change vs veh, SLC1A5 / RFU, SLMO2 / Fold change vs veh, SLMO2 / RFU, ABCC4 / Fold change vs veh, ABCC4 / RFU, LOC101060439 /// RAP1B / Fold change vs veh, LOC101060439 /// RAP1B / RFU, RFX7 / Fold change vs veh, RFX7 / RFU, GTPBP10 / Fold change vs veh, GTPBP10 / RFU, CNEP1R1 / Fold change vs veh, CNEP1R1 / RFU, BIVM-ERCC5 /// ERCC5 / Fold change vs veh, BIVM-ERCC5 /// ERCC5 / RFU, ILF3 / Fold change vs veh, ILF3 / RFU 11762660_at / Fold change /veh 11762660_at / RFU VCAN (11757783_s_at) / Fold change /veh VCAN (11757783_s_at) / RFU DDX43 (11728927_at) / Fold change /veh DDX43 (11728927_at) / RFU KRT8 (11758188_x_at) / Fold change /veh KRT8 (11758188_x_at) / RFU NKD1 (11759106_at) / Fold change /veh NKD1 (11759106_at) / RFU SRD5A1 (11742802_a_at) / Fold change /veh SRD5A1 (11742802_a_at) / RFU TPSAB1 /// TPSB2 (11721975_s_at) / Fold change /veh TPSAB1 /// TPSB2 (11721975_s_at) / RFU GSTM3 (11746129_a_at) / Fold change /veh GSTM3 (11746129_a_at) / RFU IL23R (11737362_x_at) / Fold change /veh IL23R (11737362_x_at) / RFU TMEM51 (11727254_a_at) / Fold change /veh TMEM51 (11727254_a_at) / RFU PIWIL2 (11732686_x_at) / Fold change /veh PIWIL2 (11732686_x_at) / RFU ORM1 (11744905_x_at) / Fold change /veh ORM1 (11744905_x_at) / RFU CCDC152 (11743942_at) / Fold change /veh CCDC152 (11743942_at) / RFU ECM1 (11717891_a_at) / Fold change /veh ECM1 (11717891_a_at) / RFU IL23R (11748794_a_at) / Fold change /veh IL23R (11748794_a_at) / RFU TNFAIP8L3 (11732012_x_at) / Fold change /veh TNFAIP8L3 (11732012_x_at) / RFU MBOAT4 (11741988_at) / Fold change /veh MBOAT4 (11741988_at) / RFU 11764193_at / Fold change /veh 11764193_at / RFU TMEM53 (11763286_at) / Fold change /veh TMEM53 (11763286_at) / RFU MAGEB2 (11727129_at) / Fold change /veh MAGEB2 (11727129_at) / RFU TMEM200A (11744735_a_at) / Fold change /veh TMEM200A (11744735_a_at) / RFU CCDC152 (11751479_a_at) / Fold change /veh CCDC152 (11751479_a_at) / RFU FAM211A (11726209_a_at) / Fold change /veh FAM211A (11726209_a_at) / RFU RGS16 (11746705_a_at) / Fold change /veh RGS16 (11746705_a_at) / RFU VCAN (11755009_s_at) / Fold change /veh VCAN (11755009_s_at) / RFU RHOB (11743442_s_at) / Fold change /veh RHOB (11743442_s_at) / RFU RGS16 (11720943_a_at) / Fold change /veh RGS16 (11720943_a_at) / RFU RGS16 (11720944_at) / Fold change /veh RGS16 (11720944_at) / RFU, VPS4B / Fold change vs veh, VPS4B / RFU, CREB1 / Fold change vs veh, CREB1 / RFU, DNAJC13 / Fold change vs veh, DNAJC13 / RFU, GNAQ / Fold change vs veh, GNAQ / RFU, CDK5R1 / Fold change vs veh, CDK5R1 / RFU, ZRANB3 / Fold change vs veh, ZRANB3 / RFU, CUL4A / Fold change vs veh, CUL4A / RFU, CCNY / Fold change vs veh, CCNY / RFU, UFL1 / Fold change vs veh, UFL1 / RFU, COG3 / Fold change vs veh, COG3 / RFU, DIAPH2 / Fold change vs veh, DIAPH2 / RFU, SKA2 / Fold change vs veh, SKA2 / RFU, AFF3 / Fold change vs veh, AFF3 / RFU, LMF1 / Fold change vs veh, LMF1 / RFU, IPO11 / Fold change vs veh, IPO11 / RFU, DFFB / Fold change vs veh, DFFB / RFU, FOXP1 / Fold change vs veh, FOXP1 / RFU, CARD8 / Fold change vs veh, CARD8 / RFU, STRN3 / Fold change vs veh, STRN3 / RFU, ADK / Fold change vs veh, ADK / RFU, RASSF2 / Fold change vs veh, RASSF2 / RFU, WIPF1 / Fold change vs veh, WIPF1 / RFU, LARP1B / Fold change vs veh, LARP1B / RFU, RASA1 / Fold change vs veh, RASA1 / RFU, RB1 / Fold change vs veh, RB1 / RFU, PPFIA1 / Fold change vs veh, PPFIA1 / RFU, MAT2A / Fold change vs veh, MAT2A / RFU, CCT5 / Fold change vs veh, CCT5 / RFU, WDR92 / Fold change vs veh, WDR92 / RFU, CUX1 / Fold change vs veh, CUX1 / RFU, TTC7A / Fold change vs veh, TTC7A / RFU, TMEM135 / Fold change vs veh, TMEM135 / RFU, DEPTOR / Fold change vs veh, DEPTOR / RFU, CPM / Fold change vs veh, CPM / RFU, DNAJB6 / Fold change vs veh, DNAJB6 / RFU, CACNA2D3 / Fold change vs veh, CACNA2D3 / RFU, DTX4 / Fold change vs veh, DTX4 / RFU, TFCP2 / Fold change vs veh, TFCP2 / RFU, GMCL1 /// GMCL1P1 / Fold change vs veh, GMCL1 /// GMCL1P1 / RFU, AEBP2 / Fold change vs veh, AEBP2 / RFU, SNHG1 /// SNORD22 /// SNORD25 /// SNORD26 /// SNORD27 /// SNORD28 /// SNORD29 /// SNORD31 / Fold change vs veh, SNHG1 /// SNORD22 /// SNORD25 /// SNORD26 /// SNORD27 /// SNORD28 /// SNORD29 /// SNORD31 / Fold change (Aza/veh), C12orf56 (ProbeSet 11735607_a_at) / Fold change (ACY-1035/veh), C12orf56 (ProbeSet 11735607_a_at) / Fold change (Aza/veh), FGFR1OP (ProbeSet 11751329_s_at) / Fold change (ACY-1035/veh), FGFR1OP (ProbeSet 11751329_s_at) / Fold change (Aza/veh), VPS36 (ProbeSet 11739960_a_at) / Fold change (ACY-1035/veh), VPS36 (ProbeSet 11739960_a_at) / RFU SYPL1 (11715823_x_at) / Fold change /veh SYPL1 (11715823_x_at) / RFU IGFBP7 (11715501_s_at) / Fold change /veh IGFBP7 (11715501_s_at) / RFU REEP3 (11722064_at) / Fold change /veh REEP3 (11722064_at) / RFU IGLL1 (11728026_x_at) / Fold change /veh IGLL1 (11728026_x_at): dose or concentration left out as unconfirmed
Settings: ProbeSet 11724763_s_at; LIST D

Nc1ncn([C@@H]2O[C@H](CO)[C@@H](O)[C@H]2O)c(=O)n1 [azacitidine]
RFU, DEPTOR: 80.20 RFU
